Where two headings read alike, the source gives them in different places.
How the values were obtained:
[1] = test system: Ad2 variant pre-mRNAs spliced in HeLa S3 nuclear extracts; assay: In vitro splicing assay (IVS), RT-qPCR of spliced product; type: biochemical; details: geometric mean
How it was run: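 Read-out is one-step TaqMan RT-qPCR of spliced Ad2 mRNA with Ftz as reference, normalized to DMSO and fit by non-linear regression. Reactions held HeLa S3 nuclear extract, 2 ng Ad2-derived pre-mRNA and test compound, with 15 min preincubation. Splicing was started with ATP-containing activation buffer and run 90 min at 30 °C.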

[2] = molecular target: T1, SF3b complexes (Homo sapiens, UniProt O75533+Q7RTV0); assay: Scintillation proximity assay (SPA) with [3H]-labelled pladienolide probe; type: binding; details: SF3B1 (WT); geometric mean; read-out: SPA-ATS GMean IC50 (nM) SF3B1 (WT)
T1 construct: endogenous in cells; host or cells: Nuclear extracts; A HeLa S3 extract preparation is described for the in vitro splicing assay
How it was run: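 SF3b complexes captured from nuclear extracts on anti-SF3B1 antibody SPA beads; test compounds pre-incubated 30 min before 2.5 nM [3H]-pladienolide probe added, then 30 min incubation. Bound probe read by scintillation; values from non-linear regression of concentration–response curves.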

[3] = test system: NCI-H1568 cells (high MCL1); assay: Cell proliferation and viability, CellTiter-Glo, 72 hours; type: cell-based; details: for GI50: geometric mean; for CTGlo-ATS Mean MinResponse % 72 h NCIH1568.1: −100% cidal, 0% static, 100% maximal growth
How it was run: (§1)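 ATP luminescence (CellTiter-Glo) was measured 72 h after treatment with compound at 10 μM–100 pM (11 points, half-log) in 0.1% DMSO. The Panc line was grown in RPMI-1640 plus insulin and 15% FBS, the other in 10% FBS. Data were normalised to time zero and vehicle controls, where −100% is cidal and 0% static.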

[4] = test system: Panc 05.04 cells (SF3b K700E mutant); assay: as above; type: cell-based; details: for CTGlo-ATS Mean MinResponse % 72 h PANC0504.1: −100% cidal, 0% static, 100% maximal growth; for GI50: geometric mean
How it was run: as §1

[5] = Ad2.1 pre-mRNA substrate, read-out: qPCR-IVS-ATS GMean IC50 (nM) Ad2.1
[6] = Ad2.2 pre-mRNA substrate, read-out: qPCR-IVS-ATS GMean IC50 (nM) Ad2.2
[7] = NCI-H1568, 72 h, read-out: CTGlo-ATS GMean GI50 (nM) 72 h NCIH1568.1, NCIH1568.1 cells, 72 h
[8] = Panc 05.04, 72 h, read-out: CTGlo-ATS GMean GI50 (nM) 72 h PANC0504.1, PANC0504.1 cells, 72 h
[9] = NCI-H1568, read-out: CTGlo-ATS GMean GI50 (nM) 72 h NCIH1568.1, NCIH1568.1 cells, 72 h
[10] = Panc 05.04, read-out: CTGlo-ATS GMean GI50 (nM) 72 h PANC0504.1, PANC0504.1 cells, 72 h

Compound | IC50 [1, 5] [nM] | IC50 [1, 6] [nM] | IC50 [2] [nM] | GI50 [3, 7] [nM] | CTGlo-ATS Mean MinResponse % 72 h NCIH1568.1 ([3]; NCIH1568.1 cells, 72 h) [%] | CTGlo-ATS Mean MinResponse % 72 h PANC0504.1 ([4]; PANC0504.1 cells, 72 h) [%] | GI50 [4, 8] [nM] | GI50 [3, 9] [nM] | GI50 [4, 10] [nM]
C/C(=C\c1cc(F)cc(N2CCN(CC(=O)c3cnccn3)CC2)c1)[C@H]1OC(=O)C[C@H](O)CC[C@H](C)[C@@H](OC(=O)N2CCN(C)CC2)/C=C/[C@@H]1C [Compound 85] | 22 | 27 | 4.74 | 14.1 | −80.438 | −90.914 | 8.42 |  | 
C/C(=C\c1cc(F)c2cnn(CC3CC3)c2c1)[C@H]1OC(=O)C[C@H](O)CC[C@H](C)[C@@H](OC(=O)N2CCN(C)CC2)/C=C/[C@@H]1C [Compound 87, [(2S,3S,4E,6R,7S,10R)-2-[(E)-1-[1-(cyclopropylmethyl)-4-fluoroindazol-6-yl]prop-1-en-2-yl]-10-hydroxy-3,7-dimethyl-12-oxo-1-oxacyclododec-4-en-6-yl] 4-methylpiperazine-1-carboxylate] | 62.7 | 27 | 4.98 |  | −85.463 | −79.550 |  | 3.68 | 4.19
C/C(=C\c1ccc2nccn2c1)[C@H]1OC(=O)C[C@H](O)CC[C@H](C)[C@@H](OC(=O)N2CCN(C)CC2)/C=C/[C@@H]1C [Compound 88, [(2S,3S,4E,6R,7S,10R)-10-hydroxy-2-[(E)-1-imidazo[1,2-a]pyridin-6-ylprop-1-en-2-yl]-3,7-dimethyl-12-oxo-l-oxacyclododec-4-en-6-yl] 4-methylpiperazine-1-carboxylate] | > 25000 | 154 | 1.02 | 157 | −20.194 | −5.029 | 86.3 |  | 
C/C(=C\c1ccc(C)c2[nH]ncc12)[C@H]1OC(=O)C[C@H](O)CC[C@H](C)[C@@H](OC(=O)N2CCN(C)CC2)/C=C/[C@@H]1C [Compound 89, [(2S,3S,4E,6R,7S,10R)-10-hydroxy-3,7-dimethyl-2-[(E)-1-(7-methyl-1H-indazol-4-yl)prop-1-en-2-yl]-12-oxo-1-oxacyclododec-4-en-6-yl] 4-methylpiperazine-1-carboxylate] | 24700 | 95.4 | 3.25 |  | −22.815 | −16.694 |  | 219 | 109
C/C(=C\c1cc(S(=O)(=O)N2CCC(O)CC2)ccc1F)[C@H]1OC(=O)C[C@H](O)CC[C@H](C)[C@@H](OC(=O)N2CCN(C)CC2)/C=C/[C@@H]1C [Compound 91, [(2S,3S,4E,6R,7S,10R)-2-[(E)-1-[2-fluoro-5-(4-hydroxypiperidin-l-yl)sulfonylphenyl]prop-1-en-2-yl]-10-hydroxy-3,7-dimethyl-12-oxo-1-oxacyclododec-4-en-6-yl] 4-methylpiperazine-1-carboxylate] | 14.7 | 18.9 | 6.04 |  | −64.491 | −90.776 |  | 6.86 | 4.64
C/C(=C\c1cc(F)cc(N2CCOCC2)c1)[C@H]1OC(=O)C[C@H](O)CC[C@H](C)[C@@H](OC(=O)N2CCN(CC(F)(F)F)CC2)/C=C/[C@@H]1C [Compound 92, [(2S,3S,4E,6R,7S,10R)-2-[(E)-1-(3-fluoro-5-morpholin-4-ylphenyl)prop-1-en-2-yl]-10-hydroxy-3,7-dimethyl-12-oxo-1-oxacyclododec-4-en-6-yl] 4-(2,2,2-trifluoroethyl)piperazine-1-carboxylate] | > 25000 | 664 | 80 |  | −3.918 | −37.359 |  | 401 | 433
C/C(=C\c1cccc(S(=O)(=O)N2CCNCC2)c1)[C@H]1OC(=O)C[C@H](O)CC[C@H](C)[C@@H](OC(=O)N2CCN(C)CC2)/C=C/[C@@H]1C [Compound 93] | 219 | 41.6 | 24.7 |  | −57.108 | −97.726 |  | 73.8 | 109
C/C(=C\c1cccc(S(=O)(=O)N2CCN(C=O)CC2)c1)[C@H]1OC(=O)C[C@H](O)CC[C@H](C)[C@@H](OC(=O)N2CCN(C)CC2)/C=C/[C@@H]1C [Compound 94] | 5570 | 37.5 | 7.48 |  | −40.948 | −94.671 |  | 35.5 | 30.4
C/C(=C\c1cccc(S(=O)(=O)N2CCC(O)CC2)c1)[C@H]1OC(=O)C[C@H](O)CC[C@H](C)[C@@H](OC(=O)N2CCN(C)CC2)/C=C/[C@@H]1C [Compound 95] | 10.3 | 10 | 2.32 | 2.51 | −73.174 | −93.120 | 2.59 |  | 
